{"source": "patent US4931288A", "about": "“Controlled release compositions (II)” (Lloyds Bank PLC, priority 1979, dated 1990)", "key": {"[1]": {"test": "Clinical induction of abortion", "assay_type": "in vivo, human", "conditions": "from 1 to 2.5 mg"}, "[2]": {"test": "In vitro release of prostaglandin from dry polymer cylinders/pessaries/slices into phosphate buffer pH 7.4 via 3H activity", "conditions": "for T1/2: dried polymer sample, pH 7.4, 37°; for t1/2: pH 7.4, 37° C.", "quoted_text": "19.08 g Prostin E2 at a 1% w/v solution in dephydrated ethanol is weighed. This is equivalent to 24.15 ml and therefore 0.2415 g PGE2.\n25 of the pessaries (2.6 mm×10 mm×10 mm total weight 23.02 g) are then put in a polythene bag. The swelling solution is added, and the bag is sealed. The pessaries are then allowed to swell in the PGE2 solution for 20 hours by which time nearly all the solution has been absorbed by the polymer. The bag is cut open and the swollen pessaries are removed and weighed. Uptake of solution: 104.75 g. Average PGE2 content/pessary 9.3 mg.\nThe swollen pessaries are then vacuum dried at room temperature.\nAn identical pessary is prepared with the addition of 1 μCi ^3 H labelled PGE2 to study in vitro the release of PGE2 from the dry pessary into phosphate buffer pH 7.4 at 37° C. through measurement of ^3 H activity of the buffer solution which is replaced by fresh buffer at regular intervals.\nA slice of the polymer 1 mm×11 mm×22 mm weighing 0.2678 g is added to the Ono solution in a polythene bag which is then sealed. After 6 hours swelling the bag is cut open and the swollen gel is weighed.\nA slice of PEO 1.2×24×40 mm weighing 1.3083 g is added to the solution in a polythene bag which is then sealed."}, "[3]": {"test": "In vitro release of prostaglandin from swollen (undried) polymer cylinders/pessaries into phosphate buffer pH 7.4 at 37° C.", "assay_type": "physicochemical", "conditions": "for t1/2: pH 7.4, 37°", "experimental": "(B) The procedure described in (A) is followed but the swollen cylinders obtained after 24 hours treatment with the PGE2 solution are not dried but are tested directly for the release of PGE2 into pH 7.4 phosphate buffer at 37° C. In this instance a typical half life is of the order of 10 hours.\nTo study the release of PGE2 from a fully swollen pessary into phosphate buffer pH 7.4 at 37° the polymer is swollen in an ethanol/water solution of PGE2 of 0.87 g C2 H5 OH solution of 1% w/v Prostin E2 contains 11 mg PGE2 0.09 g C2 H5 OH containing 1 μCi of ^3 HPGE2 is added, then 3.56 g H2 O. A slice of polymer 3.1 mm×10 mm×30 mm weighing 1.13 g is added to the prepared PGE2 solution in 3.7/1, w/w, water/ethanol in a polythene bag. The bag is sealed and the polymer allowed to swell over 20 hours. The swollen polymer slice is then removed and the surface wiped dry with a tissue before weighing. Uptake of solution: 4.44 g i.e. almost all the PGE2 is contained in the swollen gel. The pessary is rinsed in distilled water and then transferred to phosphate buffer solution pH 7.4 at 37° C. The release of PGE2 into the surrounding solution is measured by frequent regular replacement of the buffer and counting the activity of ^3 H in the withdrawn solution. […] It is also possible to calculate the diffusion coefficient of PGE2 in the swollen gel D=0.83×10^-6 cm^2 sec^-1."}, "[4]": {"test": "Clinical pilot study of hydrogel vaginal pessaries containing PGE2 10 mg (induction of labour)", "assay_type": "in vivo, human", "experimental": "Hydrogel vaginal pessaries, formulated as above, each containing PGE2 10 mg, have been evaluated clinically in a pilot study."}}, "data": [{"smiles": "CCCCC(C)(C)[C@@H](O)/C=C/[C@H]1[C@H](O)CC(=O)[C@@H]1CCCC/C=C/C(=O)O", "note": "(relative stereo) [16:16-dimethyl-trans-Δ^2 -PGE1]", "values": [{"measurement": "induction of abortion", "setting": "[1]", "value": "Induction of abortion has been effected"}]}, {"smiles": "CCCCC(C)(C)[C@H](O)/C=C/[C@H]1[C@H](O)CC(=O)[C@@H]1CCCC/C=C/C(=O)OC", "note": "[16,16-dimethyl-trans Δ^2 -PGE1 methyl ester]", "values": [{"measurement": "half life of release", "setting": "[2]; Example 11, dry cylinders, PEG 6,000/MDI/TMP (0.75 molar) polymer, pH 7.4 phosphate buffer, typical", "value": "~95", "unit": "h"}]}, {"smiles": "CS(=O)(=O)NC(=O)CCC/C=C\\C[C@H]1C(=O)C[C@@H](O)[C@@H]1/C=C/[C@@H](O)COc1ccccc1", "note": "[N methanesulphonyl 15z, 11α, 13E 15α)-9-Oxo-11,15-dihydroxy-16-phenoxy-w-tetranorprosta-5,13 dien-1-amide]", "values": [{"measurement": "half-life of the drug in the pessary", "setting": "[2]; Example 15, dried slice 1.2×24×40 mm, buffer pH 7.4, 37° C.", "value": 3.7, "unit": "h"}]}, {"smiles": "CCCCC(C)(C)[C@H](O)/C=C/[C@H]1[C@H](O)CC(=O)[C@@H]1C/C=C\\CCCC(=O)OC", "note": "[Ono, 16,16-dimethyl PGE2, methyl ester]", "values": [{"measurement": "dependence of half life t1/2 on thickness", "setting": "[2]; Example 13, 3 different thicknesses", "value": "directly proportional to the square of the thickness"}, {"measurement": "T1/2", "setting": "[2]; Example 13, thickness 0.25 mm", "value": 0.5, "unit": "h"}, {"measurement": "T1/2", "setting": "[2]; Example 13, thickness 0.65 mm", "value": 3.0, "unit": "h"}, {"measurement": "T1/2", "setting": "[2]; Example 13, thickness 1.00 mm", "value": 6.3, "unit": "h"}, {"measurement": "half life of Ono in this sample", "setting": "[2]; Example 13, dried slice 1 mm×11 mm×22 mm, phosphate buffer pH 7.4, 37°", "value": 6.3, "unit": "h"}]}, {"smiles": "CCCCC(C)(C)C(O)C=CC1C(O)CC(=O)C1CC=CCCCC(=O)Oc1ccc(C=NNC(N)=O)cc1", "note": "(stereo not drawn) [PG ester, 16,16 dimethyl prostaglandin E2 benzaldehyde semi-carbazone]", "values": [{"measurement": "duration of the release pattern", "setting": "[2]; Example 14, 0.25 mm slice", "value": 2, "unit": "weeks"}, {"measurement": "release rate", "setting": "[2]; Example 14, 0.25 mm slice, day 2", "value": 50, "unit": "µg/h"}, {"measurement": "release rate", "setting": "[2]; Example 14, 0.25 mm slice, overnight", "value": 13, "unit": "µg/h"}, {"measurement": "character of the release", "setting": "[2]; Example 14, thin (0.25 mm) sample", "value": "essentially that of a fully swollen device containing a dispersion rather than a solution of a low solubility prostaglandin analogue"}]}, {"smiles": "CCCCC[C@H](O)/C=C/[C@H]1[C@H](O)CC(=O)[C@@H]1C/C=C\\CCCC(=O)O", "note": "[PGE2]", "values": [{"measurement": "half life for release", "setting": "[3]; Example 10(B), swollen cylinders not dried, pH 7.4 phosphate buffer, 37° C., typical", "value": "~10", "unit": "h"}, {"measurement": "half life in the fully swollen device relative to the initially dry device", "setting": "[3]; Example 12", "value": "approximately half of the half life in the initially dry device"}, {"measurement": "constancy of the rate of release", "setting": "[3]; Example 12, fully swollen devices", "value": "do not provide the desirable reasonably constant period of the rate of release"}, {"measurement": "half life t1/2 of PGE2 in the swollen pessary", "setting": "[3]; Example 12, fully swollen pessary 3.1 mm×10 mm×30 mm, phosphate buffer pH 7.4, 37°", "value": 2.7, "unit": "h"}, {"measurement": "t1/2", "setting": "[3]; Example 12, fully swollen pessary, thickness 1.2 mm", "value": 0.7, "unit": "h"}, {"measurement": "t1/2", "setting": "[3]; Example 12, fully swollen pessary, thickness 2.4 mm", "value": 2.0, "unit": "h"}, {"measurement": "t1/2", "setting": "[3]; Example 12, fully swollen pessary, thickness 3.1 mm", "value": 2.7, "unit": "h"}, {"measurement": "diffusion coefficient of PGE2 in the swollen gel, D", "setting": "[3]; Example 12, fully swollen pessary, calculated from release measurements", "value": "0.83×10^-6 cm^2 sec^-1"}, {"measurement": "half life for release of the drug", "setting": "[2]; Example 10(A), dry cylinders, PEG 6,000/MDI/TMP (0.75 molar) polymer, pH 7.4 phosphate buffer, 37° C., typical", "value": "~20", "unit": "h"}, {"measurement": "t1/2", "setting": "[2]; Example 12, dry pessary, thickness 1.2 mm", "value": 1.4, "unit": "h"}, {"measurement": "t1/2", "setting": "[2]; Example 12, dry pessary, thickness 1.5 mm", "value": 2.4, "unit": "h"}, {"measurement": "t1/2", "setting": "[2]; Example 12, dry pessary, thickness 1.7 mm", "value": 2.7, "unit": "h"}, {"measurement": "t1/2", "setting": "[2]; Example 12, dry pessary, thickness 2.6 mm", "value": 7.0, "unit": "h"}, {"measurement": "t1/2", "setting": "[2]; Example 12, dry pessary, thickness 2.9 mm", "value": 8.0, "unit": "h"}, {"measurement": "t1/2", "setting": "[2]; Example 12, dry pessary, thickness 3.4 mm", "value": 12.0, "unit": "h"}, {"measurement": "half life t1/2 of the PGE2 in this polymer", "setting": "[2]; Example 12, dry pessary, phosphate buffer pH 7.4, 37° C.", "value": 7, "unit": "h"}, {"measurement": "labour and delivery outcome", "setting": "[4]; patients with average or favourable induction prospects, PGE2 treatment alone, without orthodox induction", "value": "became established in labour and made good progress, with successful vaginal delivery"}, {"measurement": "cervical ripening", "setting": "[4]; unfavourable patients", "value": "progressive"}, {"measurement": "establishment in labour", "setting": "[4]; unfavourable patients", "value": "all were established in labour"}, {"measurement": "latent phase of labour", "setting": "[4]; unfavourable patients", "value": "expectedly longer"}, {"measurement": "agreement of clinical experience with in vitro release", "setting": "[4]; vaginal pessaries, PGE2 10 mg", "value": "accorded well with in vitro release studies"}, {"measurement": "course of uterine activity", "setting": "[4]; vaginal pessaries, PGE2 10 mg", "value": "maintained or gradually increased"}, {"measurement": "time to appreciable uterine activity, not requiring analgesia", "setting": "[4]; vaginal pessaries, PGE2 10 mg", "value": "1 to 2", "unit": "h"}, {"measurement": "ripening of the cervix", "setting": "[4]; vaginal pessaries, PGE2 10 mg, all cases", "value": "significant `ripening` of the cervix in all cases"}]}]}
